The source made the active and inactive calls.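 How the source made its calls: active means compounds whose mean EC50, the dose giving half the maximal reporter activation, is at or below a set limit; inactive means the rest.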
Each compound was assayed against CHO-CHOP luciferase reporter, UPR activation, luminescence (assay: CHOP reporter induction, apoptotic UPR branch – CHO-CHOP cells, luciferase luminescence, confirmation (AID 489024);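 further: compounds added alone to reporter cells with no tunicamycin stress co-treatment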).

In order of falling EC50:
1. CCOC(=O)c1ccc(-c2ccc(/C=N/NC(=O)CN(c3cccc(C)c3)S(C)(=O)=O)o2)cc1  20 µM
2. COc1ccc(N=C2S/C(=C\c3ccc(N4CCOCC4)o3)C(=O)N2CCc2c[nH]c3ccccc23)cc1  18.4 µM
3. N#C/C(=C\c1ccc([N+](=O)[O-])o1)C(=O)Nc1ccc(F)cc1  17.1 µM
4. C/C(=N\NC(=O)C(c1ccccc1)c1ccccc1)c1ccccn1  16 µM
5. CCNc1ccccc1CP(=O)(c1ccccc1)c1ccccc1O (stereo not drawn)  15 µM
6. CCc1ccc(NC(=O)C(CC)Sc2nc3cc4c(cc3c(=O)n2Cc2ccco2)OCO4)cc1 (stereo not drawn)  14.9 µM
7. CC1(C)C=Cc2c(c3c(c4c(=O)c(-c5ccc(O)cc5)coc24)OC(C)(C)CC3)O1  14.5 µM
8. CC1=C(/C=C/C(C)=C/C=C/C(C)=C/C(=O)Nc2ccc(O)cc2)C(C)(C)CCC1  14.3 µM
9. Cc1ccc(-c2nn3c(C)nnc3s2)cc1NC(=O)c1ccc(-c2ccc(Cl)cc2Cl)o1  14 µM
10. Cc1cc(C)cc(N2C(=O)NC(=O)/C(=C\c3cccn3-c3ccccc3)C2=O)c1  13.9 µM
11. CCc1nc(N=Nc2c(O)[nH]c3ccccc23)c2c3c(sc2n1)CCC3  13.7 µM
12. CC(C)c1ccc(NC(=O)/C(C#N)=C/c2ccncc2)cc1  13.6 µM
13. COc1ccc(C2=CC(=O)N(Nc3ccccc3)C2=O)cc1  13.5 µM
14. COc1ccc(-c2cc(C(F)F)n3ncc(C(=O)n4ccnc4C)c3n2)cc1  13.3 µM
15. Oc1ccc(/C=N/Nc2ncnc3c2ncn3Cc2ccccc2)cc1O  13.1 µM
16. CCc1ccc(-n2c(SCC(=O)c3ccc4c(c3)NC(=O)CO4)nc3ccccc3c2=O)cc1  12.9 µM
17. COc1ccc(-c2oc(NC(=O)CCl)c(C#N)c2-c2ccc(OC)cc2)cc1  12.9 µM
18. O=C(Oc1ccccc1/C=C\C(=O)c1cc2ccccc2o1)c1ccccc1  12.9 µM
19. COc1cc(SC#N)ccc1N=Cc1c(C)[nH]n(-c2ccc(C)c(C)c2)c1=O  12.8 µM
20. O=C(NCc1ccccc1Br)c1cccc2c1C(=O)c1ccc(-c3ccc(OC(F)(F)F)cc3)cc1S2(=O)=O  12.7 µM
21. Cc1c(C(=O)c2cccc3ccccc23)c2cccc3c2n1[C@H](CN1CCOCC1)CO3  12.4 µM
22. Cc1cc(C(=O)c2ccc(C(C)(C)C)cc2)c(NC(=O)CCl)s1  12.4 µM
23. Cc1cccc(C)c1NC(=O)c1nc(S(=O)(=O)Cc2ccccc2)ncc1Cl  12.3 µM
24. COC(=O)c1ccc(COc2ccccc2/C=C(\C#N)C(=O)Nc2c(C)cccc2C)cc1  11.8 µM
25. Cc1cc(C)c2c(c1)/C(=c1/sc3n(c1=O)CN(c1ccccc1)CN=3)C(=O)N2  11.6 µM
26. O=C(Nc1nccs1)c1cccc(N2C(=O)c3cccc4c([N+](=O)[O-])ccc(c34)C2=O)c1  11.5 µM
27. O=C(CCN1C(=O)C2C3C=CC(C4CC34)C2C1=O)Oc1cccc2cccnc12 (stereo not drawn)  11.2 µM
28. COc1ccc2cc(C)c3nnc(SCC(=O)Nc4nc(-c5ccc(F)cc5)cs4)n3c2c1  10.7 µM
29. Oc1c(CN2CCCCC2)cc(Br)c2cccnc12  10.6 µM
30. CC(C)N1CSC(=S)N(Cc2ccccc2)C1  10.6 µM
31. CN1C(=O)NC(=O)/C(=C\C=C\c2ccccc2[N+](=O)[O-])C1=O  10.4 µM
32. O=C1C=CC(=O)C(C2=C3C(=O)N(CCc4ccccc4)CC(=O)N3CCC2)=C1  9.95 µM
33. Cc1ccc(C(C[N+](=O)[O-])n2nc(C)cc2C)cc1 (stereo not drawn)  9.75 µM
34. CCOc1ccc(N2C(=O)CC(N(O)c3ccccc3)C2=O)cc1 (stereo not drawn)  9.63 µM
35. C[C@@H](NC(=O)c1coc(=O)c(Br)c1)c1ccccc1  9.34 µM
36. Cc1noc2ncnc(Sc3ccc(Br)cc3)c12  9.31 µM
37. S=C(Nc1ccccc1)c1ccccn1  9.11 µM
38. O=C(c1ccc(Br)cc1)C(CN1CCOCC1)c1ccccc1 (stereo not drawn)  8.78 µM
39. COc1ccc(N=Cc2c(O)c3ccccc3oc2=O)cc1  8.64 µM
40. CCOc1ccc2c(c1)C(=NNC(=O)c1ccncc1)c1cc(OCC)ccc1-2  8.63 µM
41. CCn1c(-c2ccccc2)c(C(=O)CCl)c2ccccc21  8.47 µM
42. C/C(=N\NC(=O)c1ccc(F)cc1)c1ccccn1  8.27 µM
43. COc1ccc(/C=C/c2ccc3cccc(O)c3n2)c(OC)c1OC  8.23 µM
44. Cc1cc(C(=O)CCl)c(C)n1CC1COc2ccccc2O1 (stereo not drawn)  8.22 µM
45. CC(NC(=O)CN(c1cccc(C(F)(F)F)c1)S(=O)(=O)c1ccc(Cl)c([N+](=O)[O-])c1)c1ccccc1 (stereo not drawn)  8.07 µM
46. CCN(CC)S(=O)(=O)c1cc(NC(=O)Cn2ncc(Cl)c(Cl)c2=O)ccc1C  8.03 µM
47. CN(C)CC(CCC(CN(C)C)C(O)(c1ccccc1)c1ccccc1)C(O)(c1ccccc1)c1ccccc1 (stereo not drawn)  7.9 µM
48. CCOc1ccccc1N=Cc1c(O)c2ccccc2oc1=O  7.86 µM
49. Brc1ccccc1CN1CCN(Cc2c[nH]c3ccccc23)CC1  7.72 µM
50. CCOC(=O)c1c(-c2ccc(-c3ccccc3)cc2)csc1NC(=O)CNCCN(C)C  7.71 µM
51. COc1ccccc1-c1cc(C(F)(F)F)nc(S(=O)(=O)CCCC(=O)NCc2ccc(F)cc2)n1  7.58 µM
52. Cc1cc(C)cc(NC(=O)/C(C#N)=C/c2cn(CC(=O)NCc3ccco3)c3ccccc23)c1  7.54 µM
53. O=C(N/N=C(\c1ccccc1)c1ccccn1)c1cccc([N+](=O)[O-])c1  7.44 µM
54. Cc1cc(N/N=C/c2ccccc2[N+](=O)[O-])nc(-n2nc(C)cc2C)n1  7.44 µM
55. Cc1cc(C(=O)CCl)c(C)n1-c1cccc(S(=O)(=O)N2CCOCC2)c1  7.44 µM
56. O=C(C#Cc1ccccc1)c1cccc([N+](=O)[O-])c1  7.41 µM
57. CCc1ccc(N2C(=O)NC(=O)/C(=C\C=C\c3ccco3)C2=O)cc1  7.33 µM
58. O=C(N/N=C/c1ccccn1)c1sc2ccccc2c1Cl  7.31 µM
59. COc1cc(/C=C/C(=O)c2ccc3c(c2)OCCO3)cc(Br)c1OCC(=O)N(C)C  7 µM
60. CCOc1ccc(-n2c(C)cc(C(=O)CCl)c2C)cc1  6.97 µM
61. C=CCn1nc([N+](=O)[O-])nc1Sc1cccc2cccnc12  6.67 µM
62. Oc1c(N=Nc2ccccn2)ccc2ccccc12  6.46 µM
63. COc1ccc(C(=O)Nc2ccccc2C(=O)N/N=C/c2ccccn2)cc1OC  6.44 µM
64. CCOC(=O)/C(=C\c1ccccc1)C(=O)c1cc(C(C)=O)c(Nc2ccccc2)s1  6.37 µM
65. O=C(Nc1nc(-c2ccccn2)cs1)c1cc(Cl)ccc1[N+](=O)[O-]  6.29 µM
66. O=C(Nc1nc(-c2ccccn2)cs1)c1ccc(Cl)s1  6.11 µM
67. Oc1c(C(c2ccccc2Cl)N2CCCC2)ccc2cccnc12 (stereo not drawn)  5.76 µM
68. C/C(=N\Nc1ncnc2sc(C)c(C)c12)c1ccccn1  5.59 µM
69. CS(=O)(=O)c1nc(-c2ccc(Br)cc2)cc(-c2ccccc2)c1C#N  5.12 µM
70. Cc1ccc(C[n+]2c(-c3ccc(C)cc3)cc(-c3ccc(C)cc3)cc2-c2ccc(C)cc2)cc1  4.67 µM
71. CNC[C@@H](Cc1ccccc1)NC[C@@H](CC1CCCCC1)NCCCc1ccccc1  4.63 µM
72. COc1c(Cl)cc(Cl)cc1/C=C/C(=O)c1ccc(NC(=O)c2cccs2)cc1  4.63 µM
73. Oc1[nH]c2ccc(Br)cc2c1N=NC(=S)N1CCOCC1  4.28 µM
74. O=S(=O)(Nc1cccc2cccnc12)c1ccccc1  4.18 µM
75. O=C(N/N=C/c1ccc(O)c(O)c1)NC12CC3CC(CC(C3)C1)C2  3.34 µM
76. CCOC(=O)C1CCN(Cc2ccc(O)c3ncccc23)CC1  2.74 µM
77. O=C(Nc1ccc(Cc2ccncc2)cc1)c1ccc([N+](=O)[O-])o1  1.54 µM
78. CC1CCC/C=C/C2CC(O)CC2C(O)/C=C/C(=O)O1 (stereo not drawn)  1.34 µM
79. CN=c1scc(-c2ccco2)n1/N=C/c1ccc(O)c(O)c1  1.23 µM
80. O=C(Nc1ccc(-c2nc3ncccc3o2)cc1)c1ccc([N+](=O)[O-])o1  1.08 µM
81. O=C(Nc1ccc(S(=O)(=O)N2CCOCC2)cc1)c1ccc([N+](=O)[O-])o1  0.98 µM
82. O=C(/C=C/c1ccc(O)c(O)c1)OCCc1ccccc1  0.89 µM

For Cc1sc(NC(=O)c2cc(-c3ccc(Cl)cc3)nc3ccccc23)c(C(N)=O)c1C, the EC50 was “inactive”.
In the case of Oc1cc(-c2ccncc2)cc2cccnc12, the EC50 is reported as > 80 µM (inactive).
For N#CC(C#N)=C1C=CC=CN1/C(=C\c1ccccc1)C(=O)c1cccs1, the EC50 was > 80 µM (inactive).
For NC(N)=N/N=C/c1ccc(N(c2ccccc2)c2ccccc2)cc1, the EC50 was > 80 µM (inactive).
C=CCSC(=C(C#N)C#N)c1cc2c([nH]1)CCCC2 was tested, and the EC50 was > 80 µM (inactive).
O=C(CCl)N1N=C(c2cccs2)CC1c1ccco1 (stereo not drawn) was tested, and the EC50 was > 80 µM (inactive).
COc1ccc(OC)c(/C=C/C(=O)N2C(=O)c3cccc(N)c3C2=O)c1 was tested, and the EC50 was “inactive”.
In the case of CN1CSC(=S)N(C)C1, the EC50 is reported as > 80 µM (inactive).
For COc1ccc(/C=C/C(=O)c2ccc(C(=O)/C=C/c3ccc(OC)c(OC)c3)cc2)cc1OC, the EC50 was > 80 µM (inactive).
With O=C(Oc1c(CN2CCOCC2)cc(Cl)c2cccnc12)c1ccc(F)cc1 the EC50 was “inactive”.
COc1ccc(N=c2oc3c(OC)cccc3cc2C(=O)NCc2ccco2)c(OC)c1 was tested, and the EC50 was “inactive”.
For COc1ccc(C2OC34CCCCC3C(C#N)(C#N)C2(C#N)C(=N)O4)cc1 (stereo not drawn), the EC50 was > 80 µM (inactive).
For CCN(CC)c1ccc(/C=C2\C(=O)N(c3nnc(C)c(=O)[nH]3)N=C2C)cc1, the EC50 was “inactive”.
With Cc1cc(O)c(-c2cc(O)c(C)cc2O)cc1O the EC50 was > 80 µM (inactive).
O=C1C=CC(=O)N1c1ccc(N2CCCCC2)cc1 was tested, and the EC50 was > 80 µM (inactive).
With Cc1nc(NC(=O)/C=C/c2ccccc2)n[nH]1 the EC50 was > 80 µM (inactive).
For CC1(C)CC(=O)C(=Cc2cn(-c3ccccc3)nc2-c2ccccc2)C(=O)C1, the EC50 was “inactive”.
For COc1ccc(N=c2oc3c(OC)cccc3cc2C(=O)NCc2ccco2)cc1OC, the EC50 was > 80 µM (inactive).
For Oc1ccc(CN2CCN(Cc3ccccc3)CC2)c2cccnc12, the EC50 was “inactive”.
For Cc1ccc(N2CCN(c3ccc(NCc4nc5ccccc5n4C)cc3)CC2)cc1, the EC50 was “inactive”.
For CS(=O)(=O)Oc1ccc2c(c1)O/C(=C\C=C\c1ccccc1)C2=O, the EC50 was “inactive”.
O=c1cc(C(Cl)(Cl)Cl)oc2c1ccc1ccccc12 was tested, and the EC50 was > 80 µM (inactive).
With COc1ccc(CCn2c(C)cc(C(=O)CCl)c2C)cc1OC the EC50 was > 80 µM (inactive).
For Cc1ccc(C(C)C)c(OCc2ccc(C(=O)N/N=C/c3ccc(O)c(O)c3)cc2)c1, the EC50 was > 80 µM (inactive).
For CCOC(=O)c1cnc(-n2nc(C)cc2C)nc1NC1CCCCC1, the EC50 was > 80 µM (inactive).
In the case of Cc1ccc(Sc2ccc(/C=C3/C(=O)NN(c4ccccc4)C3=O)o2)cc1, the EC50 is reported as “inactive”.

Source: PubChem BioAssay AID489024 (Sanford-Burnham Center for Chemical Genomics, 2010)
